Source: patent US20030186943A1, “Substituted gamma-phenyl-delta-lactams and uses related thereto” (Inflazyme Pharmaceuticals Ltd., priority 1998, published 2003)
pIC50: −log10 of the molar value. Read-outs that look alike come from different tables or passages of the source.

Columns and labels:
[1] = system: Resiniferitoxin-induced mouse ear edema; test: Resiniferitoxin-induced mouse ear edema; type: in vivo; details: Mus musculus, CD1 mice; for inhibition in vivo at 100 mg/kg: ip, intraperitoneal administration; for inhibition in vivo at 50 µg/ear: topical administration, 50 μg/ear, RTX 0.1 μg/ear; for inhibition in vivo at 10 mg/kg: oral administration
Excerpt: One of the primary characteristics of inflammation is an increase in vascular dilation and permeability leading to the extravasation of, and collection of fluids in, the interstitium, resulting in redness and swelling. Rheumatoid arthritis in particular is characterized by pronounced edema of affected joints resulting in significant pain and stiffness. The mouse ear inflammation model is a standard in vivo assay for inflammation that is based on an increase in ear weight which is attributable to edema induced by inflammatory mediators. RTX (resiniferitoxin; Sigma; Catalogue No. R 8756)) is a diterpene isolated from the plant Euphorbia poisonii and is an ultrapotent analog of capsaicin. RTX acts by selectively stimulating nociceptive and thermal-sensitive nerve ending in tissue, eliciting neurogenic edema. Compounds of the present invention, whether administered topically, intraperitoneally or orally, inhibited development of edema induced by topical application of RTX.
Mice (CD1, Charles River Laboratories) were separated into groups (n—5−8) and tagged. Control mice had RTX (0.1 μg/ear) applied topically to the inner and outer sides of the left ear and vehicle applied to the right ear as a control. For topical administration, experimental/treatment mice received RTX+test compound solution (50 μg/ear) on the left ear and acetone on the right ear. For intraperitoneal (i.p.) administration, 100 mg/kg test compound dissolved in 100 μL PEG 200:saline (1:1) was injected followed by a 30 minute waiting period then the standard 30 minute RTX edema induction. For oral (p.o.) administration, 10 mg/kg test compound in 100 μL PEG-200 was given to animals, then edema induced using 0.1 μg/ear RTX after a 1.5 hour waiting period. After edema induction, mice were sacrificed, and a standard disc of ear tissue was removed. Each disk of tissue was immediately weighed to the nearest 1/10th of a mg. Data were analyzed by taking the difference of each left ear from the right ear, calculating the mean+/−SEM. Statistical significance was tested by 2-sample t-test on the left/right ear weight differences of the control group vs. the experimental group.

PDE 1 (bovine heart) = PDE 1 (bovine heart) (Bos taurus, UniProt P14100); test: PDE isozyme specificity: PDE 1; type: biochemical
Chain of PDE 1 (bovine heart) (P14100 35-530): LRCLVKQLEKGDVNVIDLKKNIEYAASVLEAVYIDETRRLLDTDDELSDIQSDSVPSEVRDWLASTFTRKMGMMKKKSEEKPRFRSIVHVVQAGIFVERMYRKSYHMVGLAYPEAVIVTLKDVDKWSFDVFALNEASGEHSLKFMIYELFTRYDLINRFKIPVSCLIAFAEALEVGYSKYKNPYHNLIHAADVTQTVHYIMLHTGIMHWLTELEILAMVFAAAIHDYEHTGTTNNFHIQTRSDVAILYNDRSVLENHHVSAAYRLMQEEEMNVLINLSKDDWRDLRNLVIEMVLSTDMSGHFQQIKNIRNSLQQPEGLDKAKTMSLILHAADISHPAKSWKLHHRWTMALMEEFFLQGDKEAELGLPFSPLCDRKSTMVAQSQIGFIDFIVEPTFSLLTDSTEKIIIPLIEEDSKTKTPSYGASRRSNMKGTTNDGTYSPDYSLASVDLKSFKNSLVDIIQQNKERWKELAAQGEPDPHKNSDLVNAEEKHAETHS
Excerpt: (§1) Compound 12 was screened for activity against 5 of the major classes of mammalian cyclic nucleotide phosphodiesterase (termed PDE 1 through 5). PDE's 1 through 4 utilize cAMP as substrate while PDE 5 uses cGMP. The broad specificity PDE inhibitor 3-isobutyl-1-methylxanthine (IBMX; Sigma; Catalogue No. 17018)) was used as a positive control in all assays. PDE's for the various assays were partially purified from the following cells/tissues; PDE 1 (bovine heart), PDE 2 (human platelets), PDE 3 (human platelets), PDE 4 (human promonocytic U937 cells) and PDE 5 (human platelets).
(§2) Test compounds (at 100 μM) were screened for activity against PDE 1,2 and 5, using standard biochemical methods performed at MDS Panlabs (Bothell, Wash., USA). The broad specificity PDE inhibitor 3-isobutyl-1-methylxanthine (IBMX) was used as a positive control in all assays. PDE's for the various assays were partially purified from the following cells/tissues; PDE 1 (bovine heart), PDE 2 (human platelets) and PDE 5 (human platelets). For purposes of comparison, the effects on PDE3 (human platelets) and PDE4 (human U937 monocytic cell line) described above are presented again in Table 12.

PDE 2 (human platelets) = target: T1, PDE 2 (human platelets) (Homo sapiens, UniProt O00408); test: PDE isozyme specificity: PDE 2; type: biochemical; details: for inhibition at 100 µM: PDE2, X marks this range
T1 construct: PDE's for the various assays were partially purified from the following cells/tissues; tissue MDS Panlabs (assay service); host or cells: human platelets
T1 sequence (O00408 whole entry): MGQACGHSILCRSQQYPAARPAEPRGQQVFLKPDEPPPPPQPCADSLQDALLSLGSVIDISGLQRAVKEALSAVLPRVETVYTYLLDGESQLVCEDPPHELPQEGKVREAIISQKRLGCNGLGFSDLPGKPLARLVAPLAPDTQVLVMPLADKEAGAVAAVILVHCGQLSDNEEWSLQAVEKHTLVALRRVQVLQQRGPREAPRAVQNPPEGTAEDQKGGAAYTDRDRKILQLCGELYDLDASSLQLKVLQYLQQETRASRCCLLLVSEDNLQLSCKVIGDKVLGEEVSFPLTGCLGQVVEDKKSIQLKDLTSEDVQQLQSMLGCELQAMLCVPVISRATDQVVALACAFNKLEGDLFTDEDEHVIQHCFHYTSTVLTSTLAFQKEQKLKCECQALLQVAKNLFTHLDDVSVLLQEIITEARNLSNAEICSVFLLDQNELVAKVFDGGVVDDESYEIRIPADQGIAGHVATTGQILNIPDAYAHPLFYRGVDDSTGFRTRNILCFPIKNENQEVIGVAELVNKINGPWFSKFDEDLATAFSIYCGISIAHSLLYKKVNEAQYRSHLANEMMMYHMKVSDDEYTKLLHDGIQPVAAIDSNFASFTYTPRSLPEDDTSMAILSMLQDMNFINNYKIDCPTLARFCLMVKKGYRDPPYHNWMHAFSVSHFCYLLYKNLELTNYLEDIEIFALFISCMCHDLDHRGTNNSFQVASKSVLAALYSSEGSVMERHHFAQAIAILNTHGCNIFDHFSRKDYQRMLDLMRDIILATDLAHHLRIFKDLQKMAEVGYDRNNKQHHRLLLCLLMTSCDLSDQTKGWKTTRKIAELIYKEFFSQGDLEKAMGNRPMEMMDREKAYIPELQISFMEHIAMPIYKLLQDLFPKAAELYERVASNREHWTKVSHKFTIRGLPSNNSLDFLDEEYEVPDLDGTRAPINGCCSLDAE
Excerpt: as §1, §2

[2] = system: cAMP Phosphodiesterase 4 from Human U937 Cells; test: Inhibition of cAMP phosphodiesterase 4 from human U937 cells; type: biochemical
Protocol: PDE's 1 through 4 utilize cAMP as substrate while PDE 5 uses cGMP. […] PDE's for the various assays were partially purified from the following cells/tissues; PDE 1 (bovine heart), PDE 2 (human platelets), PDE 3 (human platelets), PDE 4 (human promonocytic U937 cells) and PDE 5 (human platelets).
Sonicated cell extracts were then centrifuged at 70,000 g for 30 minutes and supernatants removed. Sucrose was added to a final concentration of 0.25 M, aliquoted and stored at −80° C.
PDE reactions were performed for 30 minutes at 37° C. in 20 μL volumes in 1 μM [^3H] cAMP (Amersham website http://www.apbiotech.com), 0.5 U/mL 5′ nucleotidase (Sigma), 50 mM Tris Cl, 10 mM MgCl pH 7.5. U937 extract was added such that less than 10% of substrate was consumed. Test compound or vehicle was added to the desired concentration. […] Reactions were performed in duplicate. Reactions were terminated by addition of 200 μL Dowex 1-8400 Cl^− anion exchange resin in a ratio of 1 resin: 2 methanol: 1H2O. Samples were mixed by inversion and then allowed to settle for 2-3 hours.

PDE 5 (human platelets) = target: T2, PDE 5 (human platelets) (Homo sapiens, UniProt O76074); test: PDE isozyme specificity: PDE 5; type: biochemical; details: for inhibition at 100 µM: read-out: % inhibition by 100 μM test compound 1-25, PDE5, X marks this range
T2 construct: PDE's for the various assays were partially purified from the following cells/tissues; tissue MDS Panlabs (assay service); host or cells: human platelets
Excerpt: as §1, §2

[3] = system: primary human neutrophils; test: fMLP-induced human neutrophil chemotaxis; type: cell-based; details: for IC50: fMLP-induced chemotaxis, X marks this range, read-out: IC50 RANGE (μM) 10-100
Protocol: Chemotaxis buffer containing the chemoattractant fMLP (10 μM) was added to each well of a chemotaxis plate and a filter was inserted ensuring contact between the filter and the chemotaxis buffer in the well. A submaximal concentration of chemoattractant was used which had been determined in previous experiments. […] Freshly isolated neutrophils (1×10^6) were incubated with vehicle (0.125% DMSO)±test compound for 1 hr at 37° C. Treatment and control cell suspensions were then gently resuspended and 20 μL of cells was added to the top side of the filter on each well. The plate was incubated for 1.5 hours at 37° C. under 5% CO2. Cells were then removed from the top side of the filter by aspiration and the entire plate was centrifuged. The filter was removed and known concentrations of cells were added to unused wells to prepare a standard curve. XTT (Sigma; Catalogue No. X 4251)/PMS (Sigma; Catalogue No. P 7626) solution prepared in buffer was added to each well and the cells were further incubated 1-2 hours and measured for absorbance at 450 nm. Absorbance values were converted to cell numbers using the standard curve. IC50 values are averages from at least three separate experiments with triplicate determinations.

[4] = read-out: % inhibition by 100 μM test compound 50-75, PDE1, X marks this range
[5] = read-out: % inhibition by 100 μM test compound 25-50

SMILES | inhibition in vivo at 100 mg/kg [1] | inhibition in vivo at 50 µg/ear [1] | inhibition at 100 µM (PDE 1 (bovine heart); [4]) | inhibition at 100 µM (PDE 2 (human platelets); [5]) | inhibition at 100 µM (PDE 5 (human platelets)) | IC50 [3] | inhibition in vivo at 10 mg/kg [1] | also measured
COc1cc(C[C@@H]2CC(c3ccc(OC)c(OC)c3)COC2=O)ccc1O (mixture of isomers) [Compound 12] | 61% | 85% | 50 to 75% | 25 to 50% | 1 to 25% | 10 to 100 µM | – | inhibitory effect on PDE 2 (PDE 2 (human platelets); human platelets): no significant inhibitory effects; pIC50 ([2]; human promonocytic U937 cells, read-out: IC50 PDE 4): 5.23; inhibitory effect on PDE 5 (PDE 5 (human platelets); human platelets, cGMP substrate): no significant inhibitory effects
COc1cc(C[C@@H]2C[C@@H](c3ccc(OC)c(OC)c3)COC2=O)ccc1O [Compound 30] | 28% | 98% | – | – | – | 10 to 100 µM | – | IC50 ([2]; PDE4 from U937 extract, 1 μM [3H] cAMP, X marks this range, read-out: IC50 range (μM) 1-10): 1 to 10 µM
COc1ccc([C@@H]2CCC(=O)OC2)cc1OC1CCCC1 [Compound 41] | – | – | – | 25 to 50% | 1 to 25% | – | – | inhibition at 100 µM (PDE 1 (bovine heart); read-out: % inhibition by 100 μM test compound 1-25, PDE1, X marks this range): 1 to 25%
COc1cc(CC2C[C@@H](c3ccc(OC)c(OC4CCCC4)c3)COC2=O)ccc1O (stereo partly shown) [Compound 43] | 72% | 98% | 50 to 75% | – | 1 to 25% | – | 45% | inhibition at 100 µM (PDE 2 (human platelets); read-out: % inhibition by 100 μM test compound 50-75): 50 to 75%; pIC50 ([2]; read-out: IC50 against the catalytic activity of PDE4): 6.59
COc1cc(CC2C[C@@H](c3ccc(OC)c(OC4CCCC4)c3)CNC2=O)ccc1O (stereo partly shown) [Compound 62] | – | – | – | – | – | – | 30% | –
COc1ccc(C2CNC(=O)C2)cc1OC1CCCC1 (stereo not shown) [Rolipram, reference compound] | – | – | – | – | – | – | – | inhibition at 12.5 µM ([3]; at 12.5 μM, positive control): 85%
